This note sets out measurements from patent publication US20250100996A1, “HETEROCYCLOALKYL AND HETEROARYL COMPOUNDS AND PHARMACEUTICAL COMPOSITIONS THAT MODULATE IKZF2” (Plexium, Inc., priority 2021, published 2025).

The target of assay [1] is T1, human E3 ligase component cereblon (CRBN) (Homo sapiens, UniProt Q96SW2).
T1 construct: host or cells: HEK293T
Kind of assay: Cereblon (CRBN) target engagement, NanoBRET TE Intracellular E3 Ligase Assay in transfected HEK-293T cells. Particulars: read-out: CRBN Binding EC50. The method in brief: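 HEK-293T cells transiently co-transfected with NanoLuc-CRBN (N-terminal NanoLuc) and DDB1 were dosed with CRBN tracer and an 11-point compound series (typically 10 μM to 100 pM) for 2 h at 37° C. BRET at 450/610 nm gave IC50 by four-parameter logistic fit.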

For assay [2], the target named is T2, IKZF2 (Helios) (Homo sapiens, UniProt Q9UKS7).
T2 construct: Leu-Asp junction (codons ctcgac before the linker); mScarlet (behind P2A) (C, cleaved yes); expressed in transfected cells
T2 sequence (Q9UKS7 whole entry): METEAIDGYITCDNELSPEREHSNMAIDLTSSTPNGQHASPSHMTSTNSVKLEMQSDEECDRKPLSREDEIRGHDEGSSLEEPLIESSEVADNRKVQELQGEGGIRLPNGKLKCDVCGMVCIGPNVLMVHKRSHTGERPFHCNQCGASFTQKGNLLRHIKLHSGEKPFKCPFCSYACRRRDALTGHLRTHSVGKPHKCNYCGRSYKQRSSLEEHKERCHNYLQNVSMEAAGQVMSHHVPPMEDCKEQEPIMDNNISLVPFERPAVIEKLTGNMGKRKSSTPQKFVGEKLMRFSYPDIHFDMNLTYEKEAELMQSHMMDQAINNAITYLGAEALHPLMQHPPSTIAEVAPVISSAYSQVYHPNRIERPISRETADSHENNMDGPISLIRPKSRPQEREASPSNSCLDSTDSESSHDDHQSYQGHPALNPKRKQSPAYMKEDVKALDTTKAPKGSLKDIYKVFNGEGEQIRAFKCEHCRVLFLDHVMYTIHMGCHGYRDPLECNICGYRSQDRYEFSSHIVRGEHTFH
T2 sequence (Q96SW2 whole entry, further chain): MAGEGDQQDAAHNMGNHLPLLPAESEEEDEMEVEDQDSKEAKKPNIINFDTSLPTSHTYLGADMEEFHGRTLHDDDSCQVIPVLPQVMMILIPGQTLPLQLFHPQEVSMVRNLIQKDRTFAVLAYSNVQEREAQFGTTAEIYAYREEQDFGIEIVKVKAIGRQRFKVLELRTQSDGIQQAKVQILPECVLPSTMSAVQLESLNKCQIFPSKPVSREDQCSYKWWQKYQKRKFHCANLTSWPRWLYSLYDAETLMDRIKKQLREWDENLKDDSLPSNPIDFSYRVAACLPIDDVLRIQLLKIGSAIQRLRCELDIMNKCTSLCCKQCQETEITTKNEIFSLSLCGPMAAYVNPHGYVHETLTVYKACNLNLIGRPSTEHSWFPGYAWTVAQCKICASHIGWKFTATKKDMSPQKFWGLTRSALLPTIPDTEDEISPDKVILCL
T2 sequence (Q16531 whole entry partner): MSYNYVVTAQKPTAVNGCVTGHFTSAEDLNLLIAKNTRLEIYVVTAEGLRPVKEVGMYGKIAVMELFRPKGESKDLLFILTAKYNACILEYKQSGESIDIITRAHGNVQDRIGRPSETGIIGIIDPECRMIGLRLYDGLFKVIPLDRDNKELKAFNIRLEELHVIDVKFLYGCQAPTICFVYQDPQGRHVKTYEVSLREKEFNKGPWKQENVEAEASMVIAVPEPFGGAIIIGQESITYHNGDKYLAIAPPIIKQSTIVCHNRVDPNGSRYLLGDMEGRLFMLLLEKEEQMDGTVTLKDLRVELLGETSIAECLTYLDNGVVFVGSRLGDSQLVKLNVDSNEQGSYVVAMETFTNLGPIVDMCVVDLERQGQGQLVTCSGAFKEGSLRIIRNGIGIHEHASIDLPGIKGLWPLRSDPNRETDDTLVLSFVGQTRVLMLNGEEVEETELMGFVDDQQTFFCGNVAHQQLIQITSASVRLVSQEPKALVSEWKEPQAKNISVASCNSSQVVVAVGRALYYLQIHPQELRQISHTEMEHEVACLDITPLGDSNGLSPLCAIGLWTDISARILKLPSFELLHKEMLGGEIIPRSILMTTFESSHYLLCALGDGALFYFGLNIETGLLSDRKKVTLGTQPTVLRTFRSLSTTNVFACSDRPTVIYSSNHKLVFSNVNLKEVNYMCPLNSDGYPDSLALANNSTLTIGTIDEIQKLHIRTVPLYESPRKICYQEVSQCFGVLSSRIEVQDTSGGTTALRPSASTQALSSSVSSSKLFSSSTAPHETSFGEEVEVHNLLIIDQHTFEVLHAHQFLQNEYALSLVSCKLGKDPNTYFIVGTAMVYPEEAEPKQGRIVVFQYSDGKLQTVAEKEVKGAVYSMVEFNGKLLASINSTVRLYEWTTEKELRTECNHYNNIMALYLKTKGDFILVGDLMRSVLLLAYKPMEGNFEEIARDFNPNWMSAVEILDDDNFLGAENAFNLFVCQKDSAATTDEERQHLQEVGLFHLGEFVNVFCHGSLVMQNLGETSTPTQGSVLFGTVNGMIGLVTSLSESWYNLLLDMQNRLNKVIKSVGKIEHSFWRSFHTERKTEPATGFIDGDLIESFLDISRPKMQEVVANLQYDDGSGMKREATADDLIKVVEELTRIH
Nature of the assay: IKZF2 reporter degradation assay (HEK 293T IKZF2-mNeonGreen reporter cell line). Type of assay: cell-based. Particulars: HEK 293T IKZF2-mNeonGreen reporter, 24 hours incubation. The method in brief: (§1)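 Degradation is measured as loss of mNeonGreen fused C-terminally to each human IKZF protein in clonal HEK 293T cells, with co-expressed mScarlet as reference. Treatment lasts 24 h at 37 °C. DC50 is derived by logistic fitting of percent positive cells.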

A further assay has as its target T3, IKZF3 (Aiolos) (Homo sapiens, UniProt Q9UKT9).
T3 construct: Leu-Asp junction (codons ctcgac before the linker); mScarlet (behind P2A) (C, cleaved yes); expressed in transfected cells
Kind of assay: IKZF3 reporter degradation assay (HEK 293T IKZF3-mNeonGreen reporter cell line). In kind it is cell-based. Particulars: HEK 293T IKZF3-mNeonGreen reporter, 24 hours incubation; for inhibition at 1 µM: HEK-293T, 24 h. The method in brief: as §1

The target in another assay is T4, IKZF1 (Ikaros) (Homo sapiens, UniProt Q13422).
T4 construct: mScarlet (behind P2A) (C, cleaved yes); expressed in transfected cells
T4 sequence (Q96SW2 whole entry partner): as the sequence (Q96SW2 whole entry, further chain) above
T4 sequence (Q16531 whole entry partner): as the sequence (Q16531 whole entry partner) above
T4 sequence (Q13422 whole entry): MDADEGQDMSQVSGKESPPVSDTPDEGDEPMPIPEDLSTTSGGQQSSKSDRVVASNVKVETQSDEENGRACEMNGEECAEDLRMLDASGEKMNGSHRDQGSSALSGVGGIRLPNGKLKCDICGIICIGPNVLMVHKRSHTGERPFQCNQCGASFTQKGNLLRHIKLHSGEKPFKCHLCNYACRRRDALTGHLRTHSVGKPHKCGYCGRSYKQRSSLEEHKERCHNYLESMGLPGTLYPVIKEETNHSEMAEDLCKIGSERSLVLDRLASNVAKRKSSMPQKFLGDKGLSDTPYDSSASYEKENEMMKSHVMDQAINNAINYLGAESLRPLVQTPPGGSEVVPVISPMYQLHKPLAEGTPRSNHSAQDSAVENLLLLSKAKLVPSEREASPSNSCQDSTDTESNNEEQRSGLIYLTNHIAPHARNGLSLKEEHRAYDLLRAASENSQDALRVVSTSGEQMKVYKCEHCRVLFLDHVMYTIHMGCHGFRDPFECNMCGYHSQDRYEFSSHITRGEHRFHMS
Kind of assay: IKZF1 reporter degradation assay (HEK 293T IKZF1-mNeonGreen reporter cell line). In kind it is cell-based. Particulars: HEK 293T IKZF1-mNeonGreen reporter, 24 hours incubation. An excerpt:
Polycistronic plasmids were constructed for the mammalian expression of fluorescent reporter fusions of human transcription factors IKZF1 (Ikaros), IKZF2 (Helios), and IKZF3 (Aiolos). The respective protein sequences had their C-terminal end joined to a GGGGS linker repeated three times followed by mNeonGreen, P2A sequence, and mScarlet. The DNA sequences of the open reading frames are as follows:
IKZF1, IKZF2, and IKZF3 constructs were cloned into the UCOE Hygromycin expression vectors (Millipore Sigma). Reporter constructs were transfected using cationic lipid reagents into adherent HEK 293T cells and stable integrants were selected by treatment with 200 μg/mL hygromycin B. Clonal populations were obtained from the population of stable integrants either by limiting dilution or fluorescence activated cell sorting.
The clonal stable cell lines were maintained under constant 200 μg/mL hygromycin B selection while being passaged for use in the degradation assays. […] The fluorescence intensity of the IKZF1/2/3-mNeonGreen (FITC channel) and mScarlet (PE channel) reporters were routinely analyzed by flow cytometry to confirm consistent expression levels between experiments.
The IKZF1/IKZF2/IKZF3 degradation assays were carried out by harvesting the HEK 293T reporter cell lines and resuspending the cells in media formulated for reduced background fluorescence (FluoroBrite; Thermo Fisher). The respective cell lines were seeded at a density of 4000 cells/well into black-walled 384-well optical grade assay tissue culture plates. The cells were incubated overnight at 37° C. to allow for attachment to the assay plate. Dilutions of the compounds were prepared in DMSO from 10 mM compound stocks. The assay plates were treated with appropriate concentrations of the compounds by dispensing the DMSO dilutions in quadruplicate wells with an upper limit of 0.5% final DMSO.
After 24 hours incubation with the compounds, the assay plates were imaged on an ImageXpress Pico microscopy system (cells maintained at 37° C. during imaging) to obtain the fluorescent readouts. The assay plates were imaged in the FITC and Tetramethylrhodamine (TRITC) channels to obtain the mNeonGreen fluorescence intensity (reporter degradation data) and mScarlet fluorescence intensity (for cell segmentation). 293T-IKZF1 and 293T-IKZF3 reporter cell lines were imaged with exposures of 500 milliseconds (ms) for both FITC and TRITC channels, while the 293T-IKZF2 reporter cell line was imaged with exposures of 1000 ms for FITC and 1250 ms for TRITC. The resulting data was analyzed with Cell Reporter Xpress software using the 2-channel cell scoring analysis with a “percent positive” readout. The TRITC channel was selected for the “nuclei” segmentation with a threshold of 20 while the FITC channel was selected for the “Marker 1” segmentation and a threshold of 100 for the IKZF1 and IKZF3 reporter lines. […] The minimum segmentation width was set to 6 micrometers and the maximum segmentation width was set to 15 micrometers for all cell lines. The DC50 calculations were determined by regression to best fit four-parameter logistic curves using GraphPad Prism.

Assay [3] addresses T5, IKZF2 (Helios) (Homo sapiens, UniProt Q96SW2+Q9UKS7).
T5 construct: Leu-Asp junction (codons ctcgac before the linker); mScarlet (behind P2A) (C, cleaved yes); expressed in transfected cells
Kind of assay: IKZF2 reporter degradation assay (HEK 293T IKZF2-mNeonGreen reporter cell line). Particulars: @ 1 μM, HEK 293T IKZF2-mNeonGreen reporter, 24 hours incubation; for inhibition at 1 µM: HEK-293T, 24 h. In kind it is cell-based. The method in brief: as §1

T5 sequence (Q9UKS7 whole entry): as the sequence (Q9UKS7 whole entry) above
T5 sequence (Q96SW2 whole entry): as the sequence (Q96SW2 whole entry, further chain) above
T5 sequence (Q16531 whole entry partner): as the sequence (Q16531 whole entry partner) above
T1 sequence (Q96SW2 whole entry): as the sequence (Q96SW2 whole entry, further chain) above
T1 sequence (Q16531 whole entry partner): as the sequence (Q16531 whole entry partner) above
T3 sequence (Q96SW2 whole entry partner): as the sequence (Q96SW2 whole entry, further chain) above
T3 sequence (Q16531 whole entry partner): as the sequence (Q16531 whole entry partner) above
T3 sequence (Q9UKT9 whole entry): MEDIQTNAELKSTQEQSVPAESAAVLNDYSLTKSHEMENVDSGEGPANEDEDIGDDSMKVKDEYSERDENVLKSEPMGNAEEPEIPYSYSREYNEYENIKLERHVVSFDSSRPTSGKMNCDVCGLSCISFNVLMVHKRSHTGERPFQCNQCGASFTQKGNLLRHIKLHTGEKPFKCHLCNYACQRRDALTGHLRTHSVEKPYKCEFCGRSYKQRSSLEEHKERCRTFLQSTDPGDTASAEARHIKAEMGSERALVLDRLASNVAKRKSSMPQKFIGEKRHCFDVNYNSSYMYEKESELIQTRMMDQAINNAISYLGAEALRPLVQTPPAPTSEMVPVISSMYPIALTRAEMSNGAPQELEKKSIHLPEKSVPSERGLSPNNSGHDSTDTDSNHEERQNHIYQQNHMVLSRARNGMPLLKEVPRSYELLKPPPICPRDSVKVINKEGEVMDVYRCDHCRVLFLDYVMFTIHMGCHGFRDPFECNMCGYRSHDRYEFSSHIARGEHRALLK

As for `O=C1CCC(N2Cc3cc(OC4CCC[C@@H]4N4CC(c5cncnc5)C4)ccc3C2=O)C(=O)N1` (mixture of isomers) [Compound 197-B, Rac-3-(1-oxo-5-(((trans)-2-(3-(pyrimidin-5-yl)azetidin-1-yl)cyclopentyl)oxy)isoindolin-2-yl)piperidine-2,6-dione], in assay [1], the EC50 came out at 138 nM. The DC50 at IKZF2 (Helios) [2], on IKZF3 (Aiolos) and on IKZF1 (Ikaros) was over 30000 nM throughout.
Turning to `O=C1CCC(N2Cc3cc(OC4CCC[C@@H]4N4CC(c5ccccn5)C4)ccc3C2=O)C(=O)N1` (mixture of isomers) [Compound 210-B, Rac-3-(1-oxo-5-(((trans)-2-(3-(pyridin-2-yl)azetidin-1-yl)cyclopentyl)oxy)isoindolin-2-yl)piperidine-2,6-dione], the EC50 in assay [1] turned out to be 122 nM. The half-maximal degradation concentration (DC50) on IKZF2 (Helios) [2], at IKZF3 (Aiolos) and at IKZF1 (Ikaros) was over 30000 nM throughout.
Turning to `CN(C)C(=O)C1CCN(c2ccc(CN3CCC(O)(c4ccc5c(c4)CN(C4CCC(=O)NC4=O)C5=O)CC3)cc2)CC1` (stereo not shown) [Compound 41-A, 1-(4-((4-(2-(2,6-dioxopiperidin-3-yl)-1-oxoisoindolin-5-yl)-4-hydroxypiperidin-1-yl)methyl)phenyl)-N,N-dimethylpiperidine-4-carboxamide], the EC50 in assay [1] is 611 nM. Besides, the inhibition at 1 µM stood at 37.4% on IKZF2 (Helios) [3] and 18.1% at IKZF3 (Aiolos). The DC50 was 482 nM at IKZF2 (Helios) [2] and 456 nM at IKZF3 (Aiolos).
Take `O=C1CCC(N2Cc3cc(O[C@H]4CCCC[C@@H]4N4CC(c5cncc(Cl)c5)C4)ccc3C2=O)C(=O)N1` (single isomer, unassigned) [Compound 116-B]: the EC50 in assay [1] turned out to be 6 nM. Also, the inhibition at 1 µM against IKZF2 (Helios) [3] was 73.7%. For the same compound, the values for the DC50 on IKZF2 (Helios) [2] and on IKZF3 (Aiolos) were 4 nM and over 30000 nM, respectively.
The like results for `O=C1CCC(N2Cc3cc(O[C@@H]4CCCC[C@H]4N4CC(c5ccc(C(F)(F)F)nc5)C4)ccc3C2=O)C(=O)N1` (single isomer, unassigned) [Compound 125-B] were, in that order, 65 nM, 50.9%, 83 nM and over 30000 nM.
The like results for `O=C1CCC(N2Cc3cc(O[C@H]4CCCC[C@@H]4N4CC(c5ncc(C(F)(F)F)cn5)C4)ccc3C2=O)C(=O)N1` (single isomer, unassigned) [Compound 120-B] were, in that order, 5 nM, 69.9%, 4 nM and over 30000 nM.
On to `O=C1CCC(N2Cc3cc(O[C@H]4CCCC[C@H]4N4CC(c5ccncc5)C4)ccc3C2=O)C(=O)N1` (single isomer, unassigned) [Compound 136-B], for which the EC50 in assay [1] came to 34 nM. Also, the “IKZF2 % Degradation @ 1 μM” value on IKZF2 (Helios) [3] stood at 61.4%. Further, the DC50 at IKZF2 (Helios) [2] is 30 nM; at IKZF3 (Aiolos), over 30000 nM.
The like results for `O=C1CCC(N2Cc3cc(O[C@H]4CCCC[C@@H]4N4CC(c5ccc6ccccc6n5)C4)ccc3C2=O)C(=O)N1` (single isomer, unassigned) [Compound 90-B] were, in that order, 6 nM, 87.1%, 1 nM and over 30000 nM.
Regarding `O=C1CCC(N2Cc3cc(O[C@H]4CCCC[C@@H]4N4CC(c5ccc6ccccc6n5)C4)ccc3C2=O)C(=O)N1` (single isomer, unassigned) [Compound 89-B], in assay [1], the half-maximal effective concentration (EC50) worked out at 3 nM. The compound further gave an inhibition at 1 µM against IKZF2 (Helios) [3] of 86.2%. Further, the results for the half-maximal degradation concentration (DC50) on IKZF2 (Helios) [2] and on IKZF3 (Aiolos) were 2 nM and over 30000 nM, respectively.
On to `O=C1CCC(N2Cc3cc(O[C@H]4CCCC[C@@H]4N4CC(c5ncc(Br)cn5)C4)ccc3C2=O)C(=O)N1` (mixture of isomers) [Compound 137-B, Rac-3-(5-(((trans)-2-(3-(5-bromopyrimidin-2-yl)azetidin-1-yl)cyclohexyl)oxy)-1-oxoisoindolin-2-yl)piperidine-2,6-dione], for which the 50% effective concentration (EC50) in assay [1] is 38 nM. Also, at 1 µM the inhibition at IKZF2 (Helios) [3] was 59.3%. The DC50 on IKZF2 (Helios) [2] was 49 nM; on IKZF3 (Aiolos), over 30000 nM.
For `O=C1CCC(N2Cc3cc(O[C@@H]4CCCC[C@H]4N4CC(c5ccc(C(F)(F)F)cn5)C4)ccc3C2=O)C(=O)N1` (single isomer, unassigned) [Compound 128-B] the same measures were 11 nM, 24.2%, 18 nM and over 30000 nM.
For `O=C1CCC(N2Cc3cc(OC4CCCC4N4CC(c5ccc(C(F)(F)F)cn5)C4)ccc3C2=O)C(=O)N1` (stereo not shown) [Compound 147-B, 3-(1-oxo-5-((2-(3-(5-(trifluoromethyl)pyridin-2-yl)azetidin-1-yl)cyclopentyl)oxy)isoindolin-2-yl)piperidine-2,6-dione] the same measures were 22 nM, 28.6%, 130 nM and over 30000 nM.
For `O=C1CCC(N2Cc3cc(O[C@H]4CCCC[C@@H]4N4CC(c5ccc(Cl)cn5)C4)ccc3C2=O)C(=O)N1` (single isomer, unassigned) [Compound 99-B] the same measures were 4 nM, 81.3%, 6 nM and over 30000 nM.
As to `O=C1CCC(N2Cc3cc(O[C@H]4CCCC[C@@H]4N4CC(C5CCN(C6CCC6)CC5)C4)ccc3C2=O)C(=O)N1` (stereo partly drawn) [Compound 56-A, 3-(5-(((1S,2S)-2-(3-(1-cyclobutylpiperidin-4-yl)azetidin-1-yl)cyclohexyl)oxy)-1-oxoisoindolin-2-yl)piperidine-2,6-dione], the EC50 in assay [1] was found to be 50 nM. Also, at 1 µM the inhibition against IKZF2 (Helios) [3] was 60.8%. Further, the DC50 at IKZF2 (Helios) [2] is 30 nM; on IKZF3 (Aiolos), over 30000 nM.
The like results for `O=C1CCC(N2Cc3cc(O[C@H]4CCCC[C@@H]4N4CC(C5CCN(C(=O)c6ccccc6)CC5)C4)ccc3C2=O)C(=O)N1` (stereo partly drawn) [Compound 24-A, 3-(5-{[(1S,2S)-2-[3-(1-benzoylpiperidin-4-yl)azetidin-1-yl]cyclohexyl]oxy}-1-oxo-2,3-dihydro-1H-isoindol-2-yl)piperidine-2,6-dione] were, in that order, 13 nM, 76.7%, 6 nM and over 30000 nM.
Turning to `O=C1CCC(N2Cc3cc(O[C@H]4CCCC[C@@H]4N4CC(c5ccncc5Cl)C4)ccc3C2=O)C(=O)N1` (single isomer, unassigned) [Compound 95-B], the EC50 in assay [1] came out at 30 nM. The compound also returned an inhibition at 1 µM against IKZF2 (Helios) [3] of 77.8%. The DC50 was 23 nM at IKZF2 (Helios) [2] and over 30000 nM at IKZF3 (Aiolos).
With `O=C1CCC(N2Cc3cc(O[C@H]4CCCC[C@@H]4N4CC(c5ccc(C(F)(F)F)cn5)C4)ccc3C2=O)C(=O)N1` (single isomer, unassigned) [Compound 130-B], in assay [1], the EC50 is 10 nM. Also, the inhibition at 1 µM was found to be 94.8% against IKZF2 (Helios) [3] and 37.4% on IKZF3 (Aiolos). The DC50 on IKZF2 (Helios) [2] came out at 5 nM; on IKZF3 (Aiolos) it was 44.1 nM.
